# System: subjects with PAH
# Assay: Example 2 (ARIES-1) placebo-controlled Phase III trial, efficacy
# Format: in vivo, human
# Conditions: for change from baseline in mean 6MWD at Week 12: subjects who received supplemental oxygen
# Experimental: The primary objective of this study was to determine the effect of ambrisentan on exercise capacity in subjects with pulmonary arterial hypertension (PAH). The secondary objectives of this study were to evaluate effects of ambrisentan on other clinical measures of PAH, as well as safety and tolerability of the study drug.
# Study drug was provided in round, biconvex, oral tablets that were identical in appearance. Three strengths of active study drug containing 2.5 mg, 5 mg or 10 mg of ambrisentan were used in this study. All study drug was packaged in blister cards. Subjects were instructed to take study drug once daily (q.d.) by mouth (p.o.) in the morning, with or without food.
# The maximum study duration was up to 14 weeks from the time of initial screening procedures to the final study visit (Week 12). Screening procedures were performed a maximum of 2 weeks prior to the first dose of study drug. The maximum duration of study drug treatment was 12 weeks.
# Men and women, 18 years of age or older, with idiopathic PAH, PAH associated with CTD, e.g., mixed CTD, CREST syndrome, systemic sclerosis (scleroderma), overlap syndrome or systemic lupus erythematosus, or PAH associated with anorexigen use or HIV infection were enrolled in this study. Subjects were to have a documented mean PAP≧25 mmHg, PVR>3 mmHgL/min, and PCWP or LVEDP<15 mmHg. Subjects must have been able to walk a distance of at least 150 m but no more than 450 m during 2 consecutive 6MWTs to be eligible for inclusion in the study.
# After a 2 week screening period, eligible subjects were stratified based on the underlying etiology of PAH (idiopathic or non-idiopathic) and were randomized to 1 of 3 treatment groups (placebo, 5 mg or 10 mg ambrisentan) in a ratio of 1:1:1. One blinded dose reduction was permitted during the 12-week treatment period in the event of study drug intolerance (e.g., 10 mg to 5 mg, 5 mg to 2.5 mg, placebo to placebo). Subjects received a daily dose of 2.5 mg ambrisentan only if they reduced from the 5 mg dose group. Subjects were assessed for efficacy and safety at monthly intervals.
# Therefore, after a minimum treatment period of 4 weeks, subjects who met 2 or more of the following predefined early escape criteria may have been removed from the study: • (a) a decrease from baseline of at least 20% in 6MWD; • (b) an increase of 1 or more WHO functional class; • (c) worsening right ventricular failure (e.g., as indicated by increased jugular venous pressure, new or worsening hepatomegaly, ascites or peripheral edema); • (d) rapidly progressing cardiogenic, hepatic or renal failure; and/or • (e) refractory systolic hypotension (systolic blood pressure <85 mmHg).
# The primary efficacy endpoint was change from baseline in 6MWD evaluated after 12 weeks of treatment compared to placebo.
# The secondary efficacy endpoints included: • (a) time to clinical worsening of PAH, as defined by the time from randomization to the first occurrence of death, lung transplantation, hospitalization for PAH, atrial septostomy, study discontinuation due to addition of other PAH therapeutic agents, or study discontinuation due to 2 or more early escape criteria; • (b) change from baseline measured after 12 weeks of treatment compared to placebo in: • (i) WHO functional class; • (ii) SF-36® health survey physical functioning scale; • (iii) BDI immediately following exercise; and/or • (iv) an assessment of the safety and tolerability of the study drug; and • (c) change from baseline measured after 12 weeks of treatment compared to placebo in plasma levels of ET-1, BNP and cTnT. Safety Assessments
# For the ITT population, subjects were considered as belonging to their randomized treatment group, regardless of the actual treatment received.
# The primary efficacy endpoint was the change from baseline in 6MWD evaluated after 12 weeks of treatment compared to placebo, where the last observation was carried forward. […]
# [1] = 10 mg once daily, baseline to Week 12
# [2] = combined 5 mg and 10 mg groups, 12 weeks
# [3] = combined 5 mg and 10 mg groups, Week 12
# [4] = combined 5 mg and 10 mg groups, baseline to Week 12
structure (smiles),measurement,setting,value
COC(c1ccccc1)(c1ccccc1)[C@H](Oc1nc(C)cc(C)n1)C(=O)O [ambrisentan],"Change in SF-36 Social functioning, mean (SD)",[1],+4.11 ± 11.77
same,"Change in SF-36 Vitality, mean (SD)",[1],+5.03 ± 10.07
same,Change in WHO functional class: +1 class,[1],3 (4.5) subjects (% of ITT population)
same,Change in WHO functional class: +2 classes,[1],0 (0.0) subjects (% of ITT population)
same,Change in WHO functional class: no change,[1],44 (65.7) subjects (% of ITT population)
same,Change in WHO functional class: −1 class,[1],15 (22.4) subjects (% of ITT population)
same,Change in WHO functional class: −2 classes,[1],5 (7.5) subjects (% of ITT population)
same,placebo-adjusted 6MWD increase from baseline at Week 12,"WHO class I/II subgroup, 5 mg once daily",+25.6 m
same,placebo-adjusted 6MWD increase from baseline at Week 12,"WHO class I/II subgroup, 10 mg once daily",+42.0 m
same,placebo-adjusted 6MWD increase from baseline at Week 12,"WHO class III/IV subgroup, 5 mg once daily",+34.1 m
same,placebo-adjusted 6MWD increase from baseline at Week 12,"WHO class III/IV subgroup, 10 mg once daily",+56.9 m
same,placebo-adjusted BDI at Week 12,combined 5 mg and 10 mg groups,−0.6
same,Clinical worsening event: Atrial septostomy,[2],0 (0.0) subjects (% of ITT population)
same,Clinical worsening event: Death,[2],2 (1.5) subjects (% of ITT population)
same,Clinical worsening event: Escape criteria,[2],2 (1.5) subjects (% of ITT population)
same,Clinical worsening event: Hospitalization for PAH,[2],4 (3.0) subjects (% of ITT population)
same,Clinical worsening event: Lung transplantation,[2],0 (0.0) subjects (% of ITT population)
same,Clinical worsening event: Study discontinuation due to addition of PAH treatment,[2],1 (0.7) subjects (% of ITT population)
same,Clinical worsening: Total subjects with ≧1 event,[2],6 (4.5) subjects (% of ITT population)
same,"Change in 6MWD from baseline to Week 12, mean","combined 5 mg and 10 mg groups, ITT population",+33.2 meters
same,subjects who deteriorated by at least 1 WHO class,[3],3.0%
same,subjects who had an improvement of 2 WHO classes,[3],4.5%
same,"Change in SF-36 Bodily pain, mean (SD)",[4],+0.42 ± 12.81
same,"Change in SF-36 General health, mean (SD)",[4],+1.66 ± 8.74
same,"Change in SF-36 Mental component summary, mean (SD)",[4],+1.30 ± 11.89
same,"Change in SF-36 Mental health, mean (SD)",[4],+1.18 ± 11.23
same,"Change in SF-36 Physical component summary, mean (SD)",[4],+3.34 ± 8.40
same,"Change in SF-36 Role-emotional, mean (SD)",[4],+2.19 ± 15.71
same,"Change in SF-36 Role-physical, mean (SD)",[4],+5.45 ± 10.47
same,"Change in SF-36 Social functioning, mean (SD)",[4],+2.61 ± 12.78
same,"Change in SF-36 Vitality, mean (SD)",[4],+3.71 ± 10.11
same,Change in WHO functional class: +1 class,[4],4 (3.0) subjects (% of ITT population)
same,Change in WHO functional class: +2 classes,[4],0 (0.0) subjects (% of ITT population)
same,Change in WHO functional class: no change,[4],91 (67.9) subjects (% of ITT population)
same,Change in WHO functional class: −1 class,[4],33 (24.6) subjects (% of ITT population)
same,Change in WHO functional class: −2 classes,[4],6 (4.5) subjects (% of ITT population)
same,placebo-adjusted 6MWD increase from baseline at Week 12,"female subjects, 5 mg once daily",+30.9 m
same,placebo-adjusted 6MWD increase from baseline at Week 12,"female subjects, 10 mg once daily",+57.7 m
same,placebo-adjusted 6MWD increase from baseline at Week 12,"idiopathic PAH subgroup, 5 mg once daily",+42.9 m
same,placebo-adjusted 6MWD increase from baseline at Week 12,"idiopathic PAH subgroup, 10 mg once daily",+56.9 m
same,placebo-adjusted 6MWD increase from baseline at Week 12,"male subjects, 5 mg once daily",+19.9 m
same,placebo-adjusted 6MWD increase from baseline at Week 12,"male subjects, 10 mg once daily",+13.1 m
same,placebo-adjusted 6MWD increase from baseline at Week 12,"non-idiopathic PAH subgroup, 5 mg once daily",+10.2 m
same,placebo-adjusted 6MWD increase from baseline at Week 12,"non-idiopathic PAH subgroup, 10 mg once daily",+43.0 m
same,placebo-adjusted 6MWD increase from baseline at Week 12,"subjects not receiving calcium channel blockers, 5 mg once daily",+38.7 m
same,placebo-adjusted 6MWD increase from baseline at Week 12,"subjects not receiving calcium channel blockers, 10 mg once daily",+67.9 m
same,reduction in the probability of clinical worsening (hazard ratio) compared to placebo,"subjects receiving ambrisentan (combined group), 12 weeks",50%
same,subjects hospitalized for PAH,"subjects receiving ambrisentan (combined), 12 weeks",3.0%
same,placebo-adjusted 6MWD increase from baseline at Week 12,"subjects receiving calcium channel blockers, 5 mg once daily",+15.1 m
same,placebo-adjusted 6MWD increase from baseline at Week 12,"subjects receiving calcium channel blockers, 10 mg once daily",+19.6 m
same,change from baseline in mean 6MWD at Week 12,5 mg once daily,+21.1 m
same,change from baseline in mean 6MWD at Week 12,10 mg once daily,+48.0 m
